Among the data in ChEMBL document CHEMBL2203277, “Synthesis and antibacterial activity of novel modified 5-O-desosamine ketolides” (2012) are MIC values, retold here.

Common to all, as to assay type: functional
For assay [1], the system named is Staphylococcus epidermidis. As to the kind of experiment: Antibacterial activity against methicillin-sensitive Staphylococcus epidermidis 09G291 by broth microdilution method. On the technique in general: Broth dilution looks for growth in wells or tubes with falling amounts of substance.
Assay [2] relates to Staphylococcus aureus. As to the kind of experiment: Antibacterial activity against methicillin-sensitive Staphylococcus aureus 09O077 by broth microdilution method.
Assay [3] has as its system Streptococcus pneumoniae. As to the kind of experiment: Antibacterial activity against erythromycin-resistant Streptococcus pneumoniae 09E427 by broth microdilution method.
Assay [4] concerns Streptococcus pneumoniae. As to the kind of experiment: Antibacterial activity against erythromycin-sensitive Streptococcus pneumoniae 09H071 by broth microdilution method.
The test system of assay [5] is Staphylococcus epidermidis. The assay is described as follows: Antibacterial activity against methicillin-resistant Staphylococcus epidermidis 09R476 by broth microdilution method.
Assay [6] relates to Streptococcus pneumoniae. As to the kind of experiment: Antibacterial activity against erythromycin-resistant Streptococcus pneumoniae 09D016 by broth microdilution method.
Assay [7] relates to Staphylococcus aureus. As to the kind of experiment: Antibacterial activity against methicillin-resistant Staphylococcus aureus 09L075 by broth microdilution method.
Assay [8] deals with Staphylococcus aureus. As to the kind of experiment: Antibacterial activity against methicillin-resistant Staphylococcus aureus 09N120 by broth microdilution method.
Assay [9] relates to Staphylococcus epidermidis. As to the kind of experiment: Antibacterial activity against methicillin-sensitive Staphylococcus epidermidis 09A011 by broth microdilution method.
In assay [10] the test system is Streptococcus pyogenes. The assay is described as follows: Antibacterial activity against erythromycin-resistant Streptococcus pyogenes 09Q149 by broth microdilution method.
Assay [11] has as its system Streptococcus pyogenes. The assay is described as follows: Antibacterial activity against erythromycin-sensitive Streptococcus pyogenes 09U070 by broth microdilution method.
The subject of assay [12] is Streptococcus pneumoniae. As to the kind of experiment: Antibacterial activity against erythromycin-sensitive Streptococcus pneumoniae 09H065 by broth microdilution method.
The test system of assay [13] is Staphylococcus aureus. As to the kind of experiment: Antibacterial activity against methicillin-sensitive Staphylococcus aureus 09U035 by broth microdilution method.
Assay [14] has as its system Streptococcus pneumoniae. The assay is described as follows: Antibacterial activity against erythromycin-sensitive Streptococcus pneumoniae ATCC 49619 by broth microdilution method.
Assay [15] relates to Staphylococcus aureus. The assay is described as follows: Antibacterial activity against methicillin-sensitive Staphylococcus aureus ATCC 29213 by broth microdilution method.
Assay [16] has as its system Staphylococcus epidermidis. As to the kind of experiment: Antibacterial activity against methicillin-resistant Staphylococcus epidermidis 09M124 by broth microdilution method.

Values after ≈ are worked out from the molar mass of the structure shown.

With `CC[C@H]1OC(=O)[C@H](C)C(=O)[C@H](C)[C@@H](O[C@@H]2O[C@H](C)[C@@H](OCc3ccccc3)[C@H](N(C)C)[C@H]2O)[C@](C)(OC)C[C@@H](C)C(=O)[C@H](C)[C@@H]2OC(=O)O[C@]12C`, the MIC in assay [1] is > 32 µg/mL; in the assay with Staphylococcus aureus [2] it was > 32 µg/mL; against Streptococcus pneumoniae [3], > 32 µg/mL; in the assay with Streptococcus pneumoniae [4], 4 µg/mL (≈ 5.56 µM); in [5], 32 µg/mL (≈ 44.5 µM); against Streptococcus pneumoniae [6], > 32 µg/mL. Also, the MIC with Staphylococcus aureus [7] is > 32 µg/mL; in the assay with Staphylococcus aureus [8] it was > 32 µg/mL; in assay [9] it was 16 µg/mL (≈ 22.2 µM); in the assay with Streptococcus pyogenes [10], > 32 µg/mL; in the assay on Streptococcus pyogenes [11], > 32 µg/mL; in the assay on Streptococcus pneumoniae [12], 4 µg/mL (≈ 5.56 µM). Moreover, the MIC against Staphylococcus aureus [13] was > 32 µg/mL; in the assay on Streptococcus pneumoniae [14], 4 µg/mL (≈ 5.56 µM); against Staphylococcus aureus [15] it was 32 µg/mL (≈ 44.5 µM); in assay [16], 32 µg/mL (≈ 44.5 µM).

As to `CC[C@H]1OC(=O)[C@H](C)C(=O)[C@H](C)[C@@H](O[C@@H]2O[C@H](C)[C@@H](O)[C@H](N(C)C)[C@H]2O)[C@](C)(OC)C[C@@H](C)C(=O)[C@H](C)[C@@H]2OC(=O)O[C@]12C`, the MIC in assay [1] is > 32 µg/mL; in the assay on Staphylococcus aureus [2] it was > 32 µg/mL; against Streptococcus pneumoniae [3] it was > 32 µg/mL; against Streptococcus pneumoniae [4], ≤ 0.031 µg/mL; in assay [5], 0.25 µg/mL (≈ 0.397 µM); in the assay on Streptococcus pneumoniae [6] it was > 32 µg/mL. For the same compound, the MIC is 0.125 µg/mL (≈ 0.198 µM) in the assay on Staphylococcus aureus [7]; > 32 µg/mL against Staphylococcus aureus [8]; 0.125 µg/mL (≈ 0.198 µM) in assay [9]; > 32 µg/mL in the assay on Streptococcus pyogenes [10]; ≤ 0.031 µg/mL against Streptococcus pyogenes [11]; 0.062 µg/mL (≈ 0.0985 µM) in the assay on Streptococcus pneumoniae [12]. For the same compound, the MIC is > 32 µg/mL in the assay on Staphylococcus aureus [13], 0.062 µg/mL (≈ 0.0985 µM) against Streptococcus pneumoniae [14], 0.125 µg/mL (≈ 0.198 µM) with Staphylococcus aureus [15] and 0.25 µg/mL (≈ 0.397 µM) in assay [16].

`C=CCO[C@H]1[C@H](N(C)C)[C@@H](O)[C@H](O[C@@H]2[C@@H](C)C(=O)[C@@H](C)C(=O)O[C@H](CC)[C@@]3(C)OC(=O)O[C@H]3[C@@H](C)C(=O)[C@H](C)C[C@@]2(C)OC)O[C@@H]1C`: the minimum inhibitory concentration (MIC) is > 8 µg/mL in assay [1]; > 8 µg/mL with Staphylococcus aureus [2]; > 8 µg/mL against Streptococcus pneumoniae [3]; 1 µg/mL (≈ 1.49 µM) against Streptococcus pneumoniae [4]; 4 µg/mL (≈ 5.97 µM) in assay [5]; > 8 µg/mL in the assay on Streptococcus pneumoniae [6]. Moreover, the MIC with Staphylococcus aureus [7] is 8 µg/mL (≈ 11.9 µM); against Staphylococcus aureus [8], > 8 µg/mL; in assay [9] it was 2 µg/mL (≈ 2.99 µM); with Streptococcus pyogenes [10], > 8 µg/mL; with Streptococcus pyogenes [11], > 8 µg/mL; in the assay on Streptococcus pneumoniae [12] it was 0.5 µg/mL (≈ 0.746 µM). The MIC against Staphylococcus aureus [13] was > 8 µg/mL; in the assay on Streptococcus pneumoniae [14] it was 0.5 µg/mL (≈ 0.746 µM); against Staphylococcus aureus [15] it was 4 µg/mL (≈ 5.97 µM); in assay [16], 4 µg/mL (≈ 5.97 µM).

Turning to `CC[C@H]1OC(=O)[C@H](C)[C@@H](O[C@H]2C[C@@](C)(OC)[C@@H](O)[C@H](C)O2)[C@H](C)[C@@H](O[C@@H]2O[C@H](C)C[C@H](N(C)C)[C@H]2O)[C@](C)(OC)C[C@@H](C)C(=O)[C@H](C)[C@@H](O)[C@]1(C)O` [CLARITHROMYCIN], the MIC in [1] is > 32 µg/mL; with Staphylococcus aureus [2], > 32 µg/mL; in the assay on Streptococcus pneumoniae [3] it was > 32 µg/mL; in the assay with Streptococcus pneumoniae [4], 0.062 µg/mL (≈ 0.0829 µM); in assay [5] it was 0.25 µg/mL (≈ 0.334 µM); with Streptococcus pneumoniae [6], > 32 µg/mL. Further, the MIC was 2 µg/mL (≈ 2.67 µM) in the assay on Staphylococcus aureus [7]; > 32 µg/mL in the assay with Staphylococcus aureus [8]; 0.125 µg/mL (≈ 0.167 µM) in assay [9]; > 32 µg/mL with Streptococcus pyogenes [10]; 0.031 µg/mL (≈ 0.0414 µM) against Streptococcus pyogenes [11]; 0.062 µg/mL (≈ 0.0829 µM) against Streptococcus pneumoniae [12]. Further, the MIC with Staphylococcus aureus [13] was > 32 µg/mL; against Streptococcus pneumoniae [14] it was 0.125 µg/mL (≈ 0.167 µM); in the assay on Staphylococcus aureus [15], 0.25 µg/mL (≈ 0.334 µM); in assay [16], 32 µg/mL (≈ 42.8 µM).

For the compound `CC[C@H]1OC(=O)[C@H](C)[C@@H](O[C@H]2C[C@@](C)(OC)[C@@H](O)[C@H](C)O2)[C@H](C)[C@@H](O[C@@H]2O[C@H](C)C[C@H](N(C)C)[C@H]2O)[C@](C)(O)C[C@@H](C)C(=O)[C@H](C)[C@@H](O)[C@]1(C)O` [ERYTHROMYCIN], the minimum inhibitory concentration (MIC) in [1] was > 256 µg/mL; against Staphylococcus aureus [2], > 256 µg/mL; against Streptococcus pneumoniae [3], > 256 µg/mL; against Streptococcus pneumoniae [4] it was 0.062 µg/mL (≈ 0.0845 µM); in [5] it was 0.125 µg/mL (≈ 0.17 µM); against Streptococcus pneumoniae [6], > 256 µg/mL. Moreover, the MIC in the assay with Staphylococcus aureus [7] was 0.5 µg/mL (≈ 0.681 µM); against Staphylococcus aureus [8] it was > 256 µg/mL; in assay [9] it was 0.062 µg/mL (≈ 0.0845 µM); against Streptococcus pyogenes [10], > 256 µg/mL; with Streptococcus pyogenes [11] it was 0.031 µg/mL (≈ 0.0422 µM); against Streptococcus pneumoniae [12], 0.062 µg/mL (≈ 0.0845 µM). In addition, the MIC in the assay on Staphylococcus aureus [13] is > 256 µg/mL; in the assay with Streptococcus pneumoniae [14], 0.062 µg/mL (≈ 0.0845 µM); in the assay on Staphylococcus aureus [15], 0.25 µg/mL (≈ 0.341 µM); in assay [16], 128 µg/mL (≈ 174 µM).

For `CC[C@H]1OC(=O)[C@H](C)C(=O)[C@H](C)[C@@H](O[C@@H]2O[C@H](C)C[C@H](N(C)C)[C@H]2O)[C@](C)(OC)C[C@@H](C)C(=O)[C@H](C)[C@H]2N(CCCCn3cnc(-c4cccnc4)c3)C(=O)O[C@]12C` [TELITHROMYCIN], the MIC in assay [1] is > 64 µg/mL; against Staphylococcus aureus [2] it was > 64 µg/mL; against Streptococcus pneumoniae [3] it was 0.25 µg/mL (≈ 0.308 µM); against Streptococcus pneumoniae [4], 0.031 µg/mL (≈ 0.0382 µM); in [5], 0.125 µg/mL (≈ 0.154 µM); with Streptococcus pneumoniae [6], 0.125 µg/mL (≈ 0.154 µM). In addition, the MIC was 0.125 µg/mL (≈ 0.154 µM) against Staphylococcus aureus [7]; > 64 µg/mL in the assay on Staphylococcus aureus [8]; 0.125 µg/mL (≈ 0.154 µM) in assay [9]; 2 µg/mL (≈ 2.46 µM) against Streptococcus pyogenes [10]; 0.016 µg/mL (≈ 0.0197 µM) against Streptococcus pyogenes [11]; 0.031 µg/mL (≈ 0.0382 µM) against Streptococcus pneumoniae [12]. For the same compound, the MIC against Staphylococcus aureus [13] is > 64 µg/mL; in the assay with Streptococcus pneumoniae [14], 0.031 µg/mL (≈ 0.0382 µM); against Staphylococcus aureus [15], 0.125 µg/mL (≈ 0.154 µM); in [16] it was 0.25 µg/mL (≈ 0.308 µM).

By MIC is commonly meant the lowest concentration that inhibits growth of the organism. Read a high MIC as weaker potency.
